# Laboratory results taken from US20230381312A1, “REDIRECTING GLUCOSE METABOLISM TO LIMIT STRESS AND IMPROVE ADOPTIVE CELL THERAPY” (University of Pittsburgh - Of the Commonwealth System of …, priority 2020, published 2023).
# Key:
# T cells [1] = assay: Cytokine synthesis on restimulation after switch to low or high nutrient conditions; format: cell-based
# Excerpt: FIG. 15A is a schematic of the experimental protocol for FIGS. 15B and 15C.
# [2] = tested on: tumor-infiltrating T cells; assay: Metabolic flux rate experiment (OCR) in tumor-infiltrating T cells of melanoma patients expanded in vitro with DCA; format: cell-based, human; conditions: patient TIL expanded 10 days, FIG. 7B
# Excerpt: Patient samples and PBMC samples were obtained from melanoma patients who were enrolled on institutional review board approved protocols. Cells from 5 different patients were used. PBMC were cryopreserved in 90% FBS plus 10% DMSO (Sigma, St. Louis. MO).
# (§1) This method included obtaining a sample of tumor from a patient suffering from metastatic melanoma, making a single cell suspension, and expanding the T cells in a cell culture medium with IL-2 present in a concentration of 6000 IU/mL+/−DCA in addition to anti-CD3/anti-CD28 antibodies for a period of 10 days.
# Metabolic flux rate experiments measuring OCR were also performed as described above.
# T cells [3] = assay: T cell survival and BCL2 expression after 10 days expansion in DCA (CellTrace Violet, flow cytometry); format: cell-based
# Method: The impact of a PDHK1 inhibitor (DCA) on T cell survival was assessed by measuring expression of anti-apoptotic BLC2. […] The T cells were activated and expanded as described in Example 1, except the labeled PBMCs were cultured in media containing IL-2 for 48 hours, and the T cells were cultured in DCA or control conditions for 10 days. Experimental expansion conditions included culturing in 5 mM DCA or 10 mM DCA. Control conditions included 5 mM of glycolysis inhibitor 2-deoxyglucose (2DG), low glucose media, or PBS. The impact of DCA on T cell survival was assayed by evaluating CellTrace® Violet dilution with flow cytometry. Fresh X-VIVO®-15-based culture medium containing IL-2 and DCA or 2DG was added to the T cell cultures every two to three days for a total of ten days to permit outgrowth and expansion of the T cells.
# A pairwise T test was performed on all day ten cultures (each concentration of DCA was compared to 0 mM DCA: *p<0.05, **p<0.01).
# T cells [4] = assay: Mitochondrial mass by MitoTracker FM in T cells cultured in DCA; format: cell-based, mouse; conditions: after culture in 5 mM DCA, FIG. 4E
# [5] = tested on: tumor-infiltrating T cells; assay: Signaling analysis of patient tumor-infiltrating T cells expanded with DCA (PD-1, Tim-3, IFN-gamma, TNF-alpha); format: cell-based, human; conditions: patient TIL expanded with DCA, FIG. 7C
# Method: as §1
# Signaling analysis were performed as described above.
# EGFR BBz CAR-T cells = assay: Metabolic flux rate experiments (OCR, ECAR) in EGFR BBz CAR-T cells expanded with DCA; format: cell-based; conditions: for OCR analysis (metabolic phenotype): FIG. 9A; for ECAR analysis (metabolic phenotype): FIG. 9B
# Method: Immunodeficient mice with a solid tumor (unmodified A549) were treated with adoptively transferred EGFR BBz CAR T cells that were expanded either in the presence or absence of DCA.
# FIGS. 9A-9C depict metabolic flux rate experiments and flow cytometry measurements, showing that DCA can metabolically enhance a solid-tumor targeted CAR.
# The UTD control was prepared as described above. Metabolic flux rate experiments and T cell preparation were performed as described above.
# [6] = tested on: human anti-CD19 CAR-T cells; assay: Metabolic flux rate experiments in human anti-CD19 CAR-T cells generated with DCA; format: cell-based; conditions: 5 mM DCA relative to hCD19 CAR, FIG. 8B
# Method: On the first day (“day 0”), 1) fresh or frozen peripheral blood mononuclear (PBMCs) are seeded at 10×10^6 cells/10 mL in a T25 culture flask in T Cell Growth Media (TCGM), and 2) T cell stimulation cocktail is added to a final concentration of 50 ng/mL anti-CD3, 50 ng/mL anti-CD28, and 250 IU/mL IL-2. […] On day 3, 5) lentiviral supernatant is removed, and 6) cells are fed with new media to a concentration of 3×10^5 cells/mL and 5 mM DCA. On day 4, 7) a transfer of 5×10^6 cells/condition is made to G-Rex® 6 multi-well plates, filling TCGM+5 mM DCA to a volume of 100 mL/well. […] On day 10, 9) cells are frozen down to a concentration of 100×10^6 cells/mL. Standard T Cell Growth Media includes: 930 mL X-VIVO®-15 cell medium, 50 ml Human AB Serum, 10 ml 100× GlutaMAX® supplement, and 10 mL 1M HEPES.
# FMC63 (human CD19 targeted CAR) human T cells were generated in the presence or absence of DCA. These cells were used to treat mice bearing A549 lung cancer tumors that were engineered to express hCD19.
# Controls were prepared and human anti-CD19 CAR-T cells were cultured as described above. Metabolic flux rate experiments measuring OCR were also performed as described above.
# human T cells = assay: Metabolic flux rate experiments (OCR, SRC) in human T cells expanded in DCA; format: cell-based
# Method: Metabolic flux rate experiments were performed to determine whether human T cells expanded in DCA show improved mitochondrial respiratory capacity. This example identically replicates the methods described in Example 3, except human T cells were used (derived from human healthy donor blood).
# Metabolic flux rate measurements were performed using the CellDoctor™ device and methods described above. The CellDoctor™ device was configured to measure oxygen consumption rate (OCR) and extracellular acidification rate (ECAR), corresponding to proton flux, of cells that are adherent to the bottom of 24 well microplates. As described above, flux rate experiments were performed in a human T cell line expanded in either 5 mM DCA or a control group without DCA. FIG. 6A illustrates the use of an activation step (CD3/CD28) for 48 hours and a culturing step (Ctrl/DCA) for 10 days as described in Example 2.
# T cells [7] = assay: Metabolic flux rate experiments (OCR, ECAR) in T cells expanded in DCA; format: cell-based, mouse
# Excerpt: The methods provided herein can include measurement of plural extracellular solutes and adjacent living cells disposed, for example, in a well of a multiwell microplate.
# This apparatus can include an array of submersible sensors that enable rapid coordinated sensor stabilization within multiple cell-containing wells. It also includes compound storage and delivery apparatus, a pneumatic multiplexer, a structure for adding fluids to subsets or all of the multiple wells simultaneously, and a sensor structure permitting non-destructive measurement of the effect of addition of exogenous fluid to the respective wells, in combination with the ability to make and repeat measurements rapidly. Furthermore, the apparatus is designed to exploit a cartridge structure which permits repeated use of the apparatus for disparate cellular assays without requiring intermediate cleaning, and while eliminating the possibility of cross contamination between tests.
# In use, the first step in a measurement sequence with the Seahorse XF instrument is the exchange of cell media to a type containing nearly no bicarbonate or other pH buffer in order to maximize the pH change caused by cellular proton flux.
# Next, measurement probes fitted with an optical oxygen and pH sensor were placed in each well, and were raised and lowered to mix the cell media for approximately five minutes. Third, each probe was lowered into the cell media to stop at a precise point above the cells such that approximately 25 μL of media was sequestered in a way that impeded the diffusion of oxygen molecules and protons to the larger volume of media in the well. Fourth, a series of optical measurements of the two sensors on the probe bottom (in contact with the small volume of media above the cells) were made at intervals of 8 seconds and for a period of five minutes. Typically, the dissolved oxygen level decreased by approximately 10% and the pH decreased by approximately 0.1 units. A simple linear fit to the rate of change of oxygen and pH were used to determine the OCR and ECAR for each well. […]
# [8] = 5 mM DCA relative to UTD control
# [9] = 10 mM DCA relative to UTD control
compound,measurement,setting,value
"O=C(O)C(Cl)Cl [DCA, dichloroacetic acid]",cytokine synthesis when restimulated after expansion,"T cells [1]; cells cultured with DCA for 7 days, then low or high nutrient conditions for 14 hours, FIG. 15B-15C",more proficient at synthesizing cytokines
same,resistance to stress in low nutrient conditions,"T cells [1]; low nutrient: 1 mM glucose+0 mM pyruvate, 14 hours",more resistant to stress
same,OCR at serial time points (metabolic phenotype),[2]; 5 mM DCA relative to TIL control,superior metabolic phenotype
same,OCR at serial time points (metabolic phenotype),[2]; 10 mM DCA relative to TIL control,superior metabolic phenotype
same,T cell survival,T cells [3]; T cells cultured in 5 mM or 10 mM DCA for 10 days vs 0 mM DCA,significantly increased
same,expression of the anti-apoptotic factor BCL2,"T cells [3]; T cells cultured in DCA for 10 days, FIG. 3",enhanced expression
same,mitochondrial mass (MitoTracker FM),T cells [4],increased
same,cytokine production (IFN-gamma and TNF-alpha),[5],increase in cytokine production
same,ratio of PD-1 negative T cells to PD-1 positive T cells,[5],increasing ratio
same,ratio of Tim-3 negative T cells to Tim-3 positive T cells,[5],increasing ratio
same,OCR analysis (metabolic phenotype),EGFR BBz CAR-T cells; [8],superior metabolic phenotype
same,ECAR analysis (metabolic phenotype),EGFR BBz CAR-T cells; [8],superior metabolic phenotype
same,OCR analysis (metabolic phenotype),EGFR BBz CAR-T cells; [9],superior metabolic phenotype
same,ECAR analysis (metabolic phenotype),EGFR BBz CAR-T cells; [9],superior metabolic phenotype
same,OCR at serial time points (metabolic phenotype),[6],superior metabolic and therapeutic phenotype
same,"Spare Respiratory Capacity (SRC, OCRmax-OCRbasal)","human T cells; human T cells expanded in 5 mM DCA versus control, FIG. 6D",at least 60
same,increase in OCR over baseline,"human T cells; human T cells expanded in 5 mM DCA, FIG. 6C",at least 20 pmol/min
same,OCR over time,"human T cells; human T cells, CD3/CD28 48 hours then 5 mM DCA 10 days vs control, FIG. 6B",dramatic increase
same,OCR after sequential injection of FCCP and 2DG,"T cells [7]; T cells expanded in 5 mM DCA vs control cells, FIG. 4A",OCR increased
same,increase in OCR over baseline,"T cells [7]; T cells expanded in 5 mM DCA, FIG. 4B",at least 30%
same,increase in ECAR over baseline,"T cells [7]; T cells expanded in 5 mM DCA, FIG. 4C",at least 10 mpH/min
